Patent publication US12144808B2, “Compositions and methods” (INTRA-CELLULAR THERAPIES, INC., priority 2018, dated 2024)
Values belong to the compound of their own block, whether it stands above or below them.

Experiments:
[1] = Example 1A: pharmacokinetics of subcutaneous (SC) and sublingual (SL) dosing in dogs; format: in vivo; conditions: male, beagle, dog, 1 mg/kg, tosylate salt, plasma; for AUC: 0-24 hours
Procedure: SC Administration: Six male beagle dogs between 2 and 5 years of age are randomized in two groups of three dogs each. […] Dogs in group 2 are administered the Compound of Formula II at a dose of 1 mg/kg (free base equivalent) in a 0.5% methylcellulose/distilled water vehicle. Administration is subcutaneous in the intrascapular region via a 22 or 23 gauge needle. Whole blood samples are collected via the dog's cephalic vein pre-dose, and at post-dose time-points 5, 15 and 30 minutes, 1, 2, 4, 6, 8 and 24 hours. Following a minimum 7-day washout period, the dogs are transferred to the sublingual portion of the study.
Dogs in group 2 are administered the Compound of Formula II at a dose of 1 mg/kg (free base equivalent) in a 0.5% methylcellulose/distilled water vehicle. The animals are anesthetized prior to administration of the dose using propofol (6 mg/kg) and anesthesia is maintained for 30 minutes using 3-4.5% isoflurane. Administration is sublingual and the dosage is applied for 30 minutes, then wiped off using unwoven gauze. Whole blood samples are collected via the dog's cephalic vein pre-dose, and at post-dose time-points 5, 15 and 30 minutes, 1, 2, 4, 6, 8, 24, 36 and 48 hours.
All blood samples are processed to plasma and analyzed for drug concentrations using liquid chromatography-tandem mass spectrometry (LC-MS/MS). Area under the curve (AUC) of parent and metabolites based on plasma versus time data are calculated using Prism 5.04 software (GraphPad Software, Inc.).

[2] = Example 1B: SC and SL pharmacokinetics in dogs with metabolite analysis; format: in vivo; conditions: male, beagle, dog, 1 mg/kg, plasma, analyte parent; for AUC: 0-24 hours
Procedure: SC Administration: Six male beagle dogs between 2 and 5 years of age are randomized in two groups of three dogs each. […] Administration is subcutaneous in the intrascapular region via a 22 or 23 gauge needle. […] Following a minimum 7-day washout period, the dogs are transferred to the sublingual portion of the study. SL Administration: […] The animals are anesthetized prior to administration of the dose using propofol (6 mg/kg) and anesthesia is maintained for 30 minutes using 3-4.5% isoflurane. Administration is sublingual and the dosage is applied for 30 minutes, then wiped off using unwoven gauze. […] All blood samples are processed to plasma and analyzed for drug concentrations using liquid chromatography-tandem mass spectrometry (LC-MS/MS). Area under the curve (AUC) of parent and metabolites based on plasma versus time data are calculated using Prism 5.04 software (GraphPad Software, Inc.). A second study is performed substantially as described for Example 1A, except that plasma samples are analyzed for the parent (administered) compounds, as well as for the major known metabolites. […] The results are summarized in Table 1B below (AUC is shown for 0-24 hours): […]

5-HT2C receptors = biological target: T1, 5-HT2C receptors (Homo sapiens, UniProt P28335); conditions: cited from earlier work
T1 sequence (P28335 33-458): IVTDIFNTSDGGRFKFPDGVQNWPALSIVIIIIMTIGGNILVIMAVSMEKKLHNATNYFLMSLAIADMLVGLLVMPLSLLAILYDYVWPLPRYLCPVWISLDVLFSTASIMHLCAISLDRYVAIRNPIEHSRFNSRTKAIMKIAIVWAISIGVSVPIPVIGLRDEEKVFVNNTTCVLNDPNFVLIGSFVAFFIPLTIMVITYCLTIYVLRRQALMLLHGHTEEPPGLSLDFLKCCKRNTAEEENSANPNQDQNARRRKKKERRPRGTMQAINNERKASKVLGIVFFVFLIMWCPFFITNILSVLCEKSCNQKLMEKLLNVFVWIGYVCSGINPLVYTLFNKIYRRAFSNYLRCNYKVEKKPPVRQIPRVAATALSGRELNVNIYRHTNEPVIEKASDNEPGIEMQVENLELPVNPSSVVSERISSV

[3] = biological target: H1 histaminergic receptors (Homo sapiens, UniProt P35367); conditions: cited from earlier work
Sequence of H1 histaminergic receptors (P35367 whole entry): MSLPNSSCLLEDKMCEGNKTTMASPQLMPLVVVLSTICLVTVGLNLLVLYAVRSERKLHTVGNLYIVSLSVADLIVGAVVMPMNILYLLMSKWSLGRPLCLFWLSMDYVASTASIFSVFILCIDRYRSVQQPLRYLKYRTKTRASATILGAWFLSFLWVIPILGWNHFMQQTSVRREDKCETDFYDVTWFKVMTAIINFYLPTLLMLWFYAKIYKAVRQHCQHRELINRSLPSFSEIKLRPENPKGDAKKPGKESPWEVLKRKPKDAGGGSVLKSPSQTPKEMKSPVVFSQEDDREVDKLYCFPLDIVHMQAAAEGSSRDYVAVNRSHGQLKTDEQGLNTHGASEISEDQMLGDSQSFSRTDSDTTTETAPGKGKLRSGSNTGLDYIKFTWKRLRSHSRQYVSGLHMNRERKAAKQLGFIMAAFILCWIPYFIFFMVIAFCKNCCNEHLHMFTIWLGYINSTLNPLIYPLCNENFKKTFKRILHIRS

[4] = Example 2: pharmacokinetics of oral dosing in dogs; format: in vivo; conditions: both sexes, beagle, dog, plasma, oral capsules, tosylate salt; for AUC: 0-24 hours
Procedure: For control, the dogs are administered empty capsules. For the Compound of Formula I, the dogs are administered normal-release oral capsules. Blood samples are obtained at 0.25 hours, 0.5 hours, 1 hour, 4 hours, 8 hour and 24 hours. […] Cmax, Tmax and area-under-the-curve (AUC, 0-24 hours) are calculated using Phoenix WinNonlin software.

oral bioavailability = conditions: in vivo
[5] = Example 3: pharmacokinetics of SC and IV dosing in monkeys; format: in vivo; conditions: cynomolgus monkey, 0.5 mg/kg, plasma; for AUC: read-out: AUC, Parent Compound; for Cmax: read-out: Cmax, Parent Compound; for Tmax: read-out: Tmax, Parent Compound
Procedure: Six Cynomolgus monkeys are divided into two groups for IV and SC dosing with the Compound of Formula I. The animals are dosed in a fasting state. Blood samples are collected pre-dose, and at 5 minutes, 15 minutes, 1, 2, 4, 6, 8, 24, 36 and 48 hours post-dose. All blood samples are processed to plasma and later analyzed by liquid chromatography-tandem mass spectrometry. […] PK parameters are calculated using PK Solutions 2.0 software (Summit Research Services, Colorado, US).

muscarinic receptors = conditions: cited from earlier work

Cmax ([1]; SC): 79 ng/mL
Tmax ([1]; SC): 1 h
AUC ([1]; SC): 785 ng·h/mL
Cmax ([1]; SL): 562 ng/mL
Tmax ([1]; SL): 1 h
AUC ([1]; SL): 1260 ng·h/mL
AUC ([2]; SC): 785 ng·h/mL
AUC ([2]; SL): 1260 ng·h/mL
Cmax ([2]; SC): 79 ng/mL
Tmax ([2]; SC): 1 h
Cmax ([2]; SL): 562 ng/mL
Tmax ([2]; SL): 1 h
SMILES: [2H]C1([2H])CN2c3c(cccc3N1C)[C@@H]1CN(CCCC(=O)c3ccc(F)cc3)CC[C@@H]12 [Compound of Formula II, 1-(4-fluoro-phenyl)-4-((6bR,10aS)-2,2-d2-3-methyl-2,3,6b,9,10,10a-hexahydro-1H,7H-pyrido[3′,4′:4,5]pyrrolo[1,2,3-de]quinoxalin-8-yl)-butan-1-one]

Cmax ([1]; SC): 110 ng/mL
Tmax ([1]; SC): 1 h
AUC ([1]; SC): 813 ng·h/mL
Cmax ([1]; SL): 259 ng/mL
Tmax ([1]; SL): 1 h
AUC ([1]; SL): 734 ng·h/mL
Cmax ([4]; 2.5 mg/kg): 5.51 ng/mL
Tmax ([4]; 2.5 mg/kg): 0.469 h
AUC ([4]; 2.5 mg/kg): 40 ng·h/mL
Cmax ([4]; 5 mg/kg): 7.72 ng/mL
Tmax ([4]; 5 mg/kg): 0.875 h
AUC ([4]; 5 mg/kg): 52.5 ng·h/mL
Cmax ([4]; 10 mg/kg): 29 ng/mL
Tmax ([4]; 10 mg/kg): 0.813 h
AUC ([4]; 10 mg/kg): 142 ng·h/mL
Cmax ([4]; 15 mg/kg): 44.5 ng/mL
Tmax ([4]; 15 mg/kg): 1.63 h
AUC ([4]; 15 mg/kg): 248 ng·h/mL
bioavailability (oral bioavailability): ≤ 5%
AUC ([2]; SC): 560 ng·h/mL
AUC ([2]; SL): 507 ng·h/mL
Cmax ([2]; SC): 76 ng/mL
Tmax ([2]; SC): 1 h
Cmax ([2]; SL): 179 ng/mL
Tmax ([2]; SL): 1 h
AUC ([5]; Cynomolgus, SC): 220 ng·h/mL
Cmax ([5]; Cynomolgus, SC): 23 ng/mL
Tmax ([5]; Cynomolgus, SC): 2 h
bioavailability ([5]; Cynomolgus, subcutaneous, SC administration, read-out: bioavailability (comparison of IV to SC pharmacokinetics)): ~74%
AUC ([5]; IV): 297 ng·h/mL
Cmax ([5]; IV): 94 ng/mL
Tmax ([5]; IV): 0.083 h
SMILES: CN1CCN2c3c(cccc31)[C@@H]1CN(CCCC(=O)c3ccc(F)cc3)CC[C@@H]12 [Compound of Formula I, 1-(4-fluoro-phenyl)-4-((6bR,10aS)-3-methyl-2,3,6b,9,10,10a-hexahydro-1H,7H-pyrido[3′,4′:4,5]pyrrolo[1,2,3-de]quinoxalin-8-yl)-butan-1-one]
binding to 5-HT2C receptors (5-HT2C receptors): negligible binding
binding to H1 histaminergic receptors [3]: negligible binding
binding to muscarinic receptors (muscarinic receptors): negligible binding
